This is an account of results in patent publication US9499492B2, “4-(ortho)-fluorophenyl-5-fluoropyrimidin-2-yl amines containing a sulfoximine group” (BAYER PHARMA AKTIENGESELLSCHAFT, priority 2012, dated 2016).

Where two headings read alike, the source gives them in different places.

Data set [1] deals with HeLa, human cervical tumour cells. Put plainly: Proliferation assay, HeLa (Method 3). The format is cell-based. As to conditions: 4 days, crystal violet, read-out: Inhibition of HeLa cell proliferation IC50. On the procedure:
(§1) After 24 hours, the cells of one plate (zero-point plate) were stained with crystal violet (see below), while the medium of the other plates was replaced by fresh culture medium (200 μl), to which the test substances were added in various concentrations (0 μM, as well as in the range of 0.001-10 μM; the final concentration of the solvent dimethyl sulfoxide was 0.5%). The cells were incubated for 4 days in the presence of test substances. Cell proliferation was determined by staining the cells with crystal violet: the cells were fixed by adding 20 μl/measuring point of an 11% glutaric aldehyde solution for 15 minutes at room temperature. After three washing cycles of the fixed cells with water, the plates were dried at room temperature. The cells were stained by adding 100 μl/measuring point of a 0.1% crystal violet solution (pH 3.0). After three washing cycles of the stained cells with water, the plates were dried at room temperature. The dye was dissolved by adding 100 μl/measuring point of a 10% acetic acid solution. The extinction was determined by photometry at a wavelength of 595 nm. The change of cell number, in percent, was calculated by normalization of the measured values to the extinction values of the zero-point plate (=0%) and the extinction of the untreated (0 μm) cells (=100%).

In data set [2] the test system is A2780, human ovarian carcinoma cells. In words: Proliferation assay, A2780 (Method 3). The format is cell-based. As to conditions: A2780, 4 days, crystal violet, read-out: Inhibition of A2780 cell proliferation IC50. On the procedure:
as §1

The target in another data set is CDK2/CycE (Homo sapiens (Human), UniProt P24941). In words: CDK2/CycE kinase assay (Method 2). The following applies: 10 μM ATP. The format is biochemical. An excerpt:
2. CDK2/CycE Kinase Assay:
CDK2/CycE-inhibitory activity of compounds of the present invention was quantified employing the CDK2/CycE TR-FRET assay as described in the following paragraphs:
Recombinant fusion proteins of GST and human CDK2 and of GST and human CycE, expressed in insect cells (Sf9) and purified by Glutathion-Sepharose affinity chromatography, were purchased from ProQinase GmbH (Freiburg, Germany). As substrate for the kinase reaction biotinylated peptide biotin-Ttds-[…] (C-terminus in amid form) was used which can be purchased e.g. form the company JERINI Peptide Technologies (Berlin, Germany).
(§2) For the assay 50 nl of a 100 fold concentrated solution of the test compound in DMSO was pipetted into a black low volume 384 well microtiter plate (Greiner Bio-One, Frickenhausen, Germany), 2 μl of a solution of CDK2/CycE in aqueous assay buffer [50 mM Tris/HCl pH 8.0, 10 mM MgCl2, 1.0 mM dithiothreitol, 0.1 mM sodium ortho-vanadate, 0.01% (v/v) Nonidet-P40 (Sigma)] were added and the mixture was incubated for 15 min at 22° C. to allow pre-binding of the test compounds to the enzyme before the start of the kinase reaction. […] The concentration of CDK2/CycE was adjusted depending of the activity of the enzyme lot and was chosen appropriate to have the assay in the linear range, typical concentrations were in the range of 130 ng/ml.
(§3) The resulting mixture was incubated 1 h at 22° C. to allow the formation of complex between the phosphorylated biotinylated peptide and the detection reagents. Subsequently the amount of phosphorylated substrate was evaluated by measurement of the resonance energy transfer from the Eu-chelate to the streptavidine-XL. Therefore, the fluorescence emissions at 620 nm and 665 nm after excitation at 350 nm was measured in a TR-FRET reader, e.g. a Rubystar (BMG Labtechnologies, Offenburg, Germany) or a Viewlux (Perkin-Elmer). The ratio of the emissions at 665 nm and at 622 nm was taken as the measure for the amount of phosphorylated substrate.

Data set [3] addresses T1, CDK9/CycT1 (Homo sapiens (Human), UniProt P50750). Put plainly: CDK9/CycT1 kinase assay (Method 1a). As to conditions: for IC50: 10 μM ATP; for Selectivity CDK9/CDK2: derived from Methods 1a. and 2. The format is biochemical.
Excerpt: 1a. CDK9/CycT1 Kinase Assay:
CDK9/CycT1-inhibitory activity of compounds of the present invention was quantified employing the CDK9/CycT1 TR-FRET assay as described in the following paragraphs:
Recombinant full-length His-tagged human CDK9 and CycT1, expressed in insect cells and purified by Ni-NTA affinity chromatography, were purchased from Invitrogen (Cat. No PV4131). As substrate for the kinase reaction biotinylated peptide biotin-Ttds-[…] (C-terminus in amid form) was used which can be purchased e.g. form the company JERINI Peptide Technologies (Berlin, Germany).
as §2, with “CDK9/CycT1” for “CDK2/CycE”, “1 μg/ml.” for “130 ng/ml.”
as §3, with “HTRF” for “TR-FRET”

Data set [4] has as its system MOLM-13 human acute myeloid leukemia cells. Put plainly: Proliferation assay, MOLM-13 (Cell Titre-Glo, Method 3). As to conditions: MOLM-13, 72-hour exposure, read-out: Inhibition of MOLM-13 cell proliferation IC50. The format is cell-based. The method, then: Non-adherent MOLM-13 human acute myeloid leukemia cells (DSMZ ACC 554) were seeded at a density of 5,000 cells/well in a 96-well multititer plate in 100 μL of growth medium supplemented 10% fetal calf serum. After 24 hours, cell viability of one plate (zero-point plate) was determined with the Cell Titre-Glo Luminescent Cell Viability Assay (Promega), while 50 μL of test compound containing medium was added to the wells of the other plates (final concentrations in the range of 0.001-10 μM and DMSO controls; the final concentration of the solvent dimethyl sulfoxide was 0.5%). Cell viability was assessed after 72-hour exposure with the Cell Titre-Glo Luminescent Cell Viability Assay (Promega).

For data set [5], the target named is T1, CDK9/CycT1. In words: CDK9/CycT1 high ATP kinase assay (Method 1b). The format is biochemical. As to conditions: 2 mM ATP. On the procedure:
1b. CDK9/CycT1 High ATP Kinase Assay
CDK9/CycT1-inhibitory activity of compounds of the present invention at a high ATP concentration after preincubation of enzyme and test compounds was quantified employing the CDK9/CycT1 TR-FRET assay as described in the following paragraphs.
Recombinant full-length His-tagged human CDK9 and CycT1, expressed in insect cells and purified by Ni-NTA affinity chromatography, were purchase from Invitrogen (Cat. No PV4131). As substrate for the kinase reaction biotinylated peptide biotin-Ttds-[…] (C-terminus in amid form) was used which can be purchased e.g. form the company JERINI peptide technologies (Berlin, Germany).
as §2, with “CDK9/CycT1” for “CDK2/CycE”, “0.5 μg/ml.” for “130 ng/ml.”
as §3, with “HTRF” for “TR-FRET”

Data set [6] is described as follows: In vitro metabolic stability in rat hepatocytes (Method 5). The format is in vitro ADME, Han Wistar rat. The following applies: 1 μM test compound. On the procedure: 5. Investigation of In Vitro Metabolic Stability in Rat Hepatocytes
Hepatocytes from Han Wistar rats were isolated via a 2-step perfusion method. After perfusion, the liver was carefully removed from the rat: the liver capsule was opened and the hepatocytes were gently shaken out into a Petri dish with ice-cold Williams medium E (purchased from Sigma Aldrich Life Science, St Louis, Mo.). The resulting cell suspension was filtered through sterile gaze in 50 ml falcon tubes and centrifuged at 50×g for 3 min at room temperature. The cell pellet was resuspended in 30 ml WME and centrifuged through a Percoll® gradient for 2 times at 100×g. The hepatocytes were washed again with Williams' medium E (WMA) and resuspended in medium containing 5% Fetal calf serum (FCS, purchased from Invitrogen, Auckland, NZ). Cell viability was determined by trypan blue exclusion.
For the metabolic stability assay liver cells were distributed in WME containing 5% FCS to glass vials at a density of 1.0×10^6 vital cells/ml. The test compound was added to a final concentration of 1 μM. During incubation, the hepatocyte suspensions were continuously shaken and aliquots were taken at 2, 8, 16, 30, 45 and 90 min, to which equal volumes of cold acetonitrile were immediately added. Samples were frozen at −20° C. over night, after subsequently centrifuged for 15 minutes at 3000 rpm and the supernatant was analyzed with an Agilent 1200 HPLC-system with LCMS/MS detection.
The half-life of a test compound was determined from the concentration-time plot. From the half-life the intrinsic clearances were calculated. Together with the additional parameters liver blood flow, amount of liver cells in vivo and in vitro.

T1 sequence (P50750 whole entry): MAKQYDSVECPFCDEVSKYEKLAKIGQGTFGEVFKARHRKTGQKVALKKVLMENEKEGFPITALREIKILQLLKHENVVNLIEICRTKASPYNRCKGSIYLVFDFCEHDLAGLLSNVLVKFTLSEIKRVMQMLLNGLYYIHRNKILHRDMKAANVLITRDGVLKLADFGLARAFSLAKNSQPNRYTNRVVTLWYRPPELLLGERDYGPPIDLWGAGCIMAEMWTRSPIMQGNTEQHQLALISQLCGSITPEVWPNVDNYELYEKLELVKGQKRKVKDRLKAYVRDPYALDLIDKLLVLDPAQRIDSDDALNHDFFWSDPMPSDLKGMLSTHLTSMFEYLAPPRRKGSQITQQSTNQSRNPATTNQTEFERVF
T1 sequence (O60563 whole entry partner): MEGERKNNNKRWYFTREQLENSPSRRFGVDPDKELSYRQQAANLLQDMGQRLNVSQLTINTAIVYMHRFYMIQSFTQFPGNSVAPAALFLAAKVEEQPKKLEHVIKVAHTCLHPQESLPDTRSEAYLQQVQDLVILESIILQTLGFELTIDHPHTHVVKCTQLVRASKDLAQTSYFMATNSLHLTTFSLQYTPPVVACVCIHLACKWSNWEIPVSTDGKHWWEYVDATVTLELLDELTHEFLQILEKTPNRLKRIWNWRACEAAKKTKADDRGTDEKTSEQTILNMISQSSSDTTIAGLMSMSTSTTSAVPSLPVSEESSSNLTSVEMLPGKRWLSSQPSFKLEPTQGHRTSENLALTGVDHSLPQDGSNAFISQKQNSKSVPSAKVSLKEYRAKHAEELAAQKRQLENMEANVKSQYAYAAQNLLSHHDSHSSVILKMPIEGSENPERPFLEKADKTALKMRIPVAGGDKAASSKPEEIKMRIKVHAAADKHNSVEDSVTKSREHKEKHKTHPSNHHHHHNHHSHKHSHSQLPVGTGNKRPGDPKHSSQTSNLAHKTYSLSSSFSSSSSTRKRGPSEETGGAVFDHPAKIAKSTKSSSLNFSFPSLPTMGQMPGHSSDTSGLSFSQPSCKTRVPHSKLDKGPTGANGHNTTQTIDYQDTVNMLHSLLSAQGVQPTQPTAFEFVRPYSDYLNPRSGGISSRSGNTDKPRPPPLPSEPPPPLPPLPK

For the molecule `CS(=O)(Cc1cc(Nc2ncc(F)c(-c3ccc(F)cc3F)n2)cc(S(F)(F)(F)(F)F)c1)=NC#N` (single isomer, unassigned) [Example 29, {[3-{[4-(2,4-Difluorophenyl)-5-fluoropyrimidin-2-yl]amino}-5-(pentafluoro-λ^6-sulfanyl)benzyl](methyl)oxido-λ^6-sulfanylidene}cyanamide], the IC50 in data set [1] worked out at 178 nM; in data set [2] (Homo sapiens, A2780, 96 h), 96 nM; at CDK2/CycE, 940 nM; against CDK9/CycT1 [3], 5 nM; in data set [4] (Homo sapiens, MOLM-13, 72 h) it was 92 nM; at CDK9/CycT1 [5], 8 nM. Further, the “Selectivity CDK9/CDK2” value at CDK9/CycT1 [3] worked out at 198.

Take `CS(=N)(=O)Cc1cc(Br)cc(Nc2ncc(F)c(-c3ccc(F)cc3F)n2)c1` (single isomer, unassigned) [Example 42, N-{3-Bromo-5-[(S-methylsulfonimidoyl)methyl]phenyl}-4-(2,4-difluorophenyl)-5-fluoropyrimidin-2-amine]: the IC50 in data set [1] (Homo sapiens, 96 h) is 1060 nM; in data set [2] (Homo sapiens, A2780, 96 h), 1000 nM; at CDK2/CycE, 470 nM; against CDK9/CycT1 [3], 15 nM; in data set [4] (Homo sapiens, MOLM-13, 72 h), 946 nM; on CDK9/CycT1 [5], 334 nM. The “Selectivity CDK9/CDK2” value on CDK9/CycT1 [3] turned out to be 30.

For the molecule `CS(=O)(Cc1cc(Cl)cc(Nc2ncc(F)c(-c3ccc(F)cc3F)n2)c1)=NC#N` (racemic) [Example 14, (rac)-[(3-Chloro-5-{[4-(2,4-difluorophenyl)-5-fluoropyrimidin-2-yl]amino}benzyl)(methyl)oxido-λ^6-sulfanylidene]cyanamide], the IC50 is 1020 nM in data set [1] (Homo sapiens, 96 h); 540 nM in data set [2] (Homo sapiens, A2780, 96 h); 530 nM against CDK2/CycE. For the same molecule, the “maximal calculated oral bioavailability (Fmax) based on stability data in rat Hepatocytes” value in data set [6] was 75%.

`CS(=O)(Cc1cc(Nc2ncc(F)c(-c3ccc(F)cc3F)n2)cc(C(F)(F)F)c1)=NC(N)=O` (single isomer, unassigned) [Example 24, 1-{[3-{[4-(2,4-Difluorophenyl)-5-fluoropyrimidin-2-yl]amino}-5-(trifluoromethyl)benzyl](methyl)oxido-λ^6-sulfanylidene}urea]: the IC50 in data set [1] amounted to 910 nM; in data set [2], 320 nM; against CDK2/CycE, 670 nM; at CDK9/CycT1 [3], 10 nM; at CDK9/CycT1 [5], 199 nM. Also, on CDK9/CycT1 [3], the “Selectivity CDK9/CDK2” value was determined as 66. In addition, the “maximal calculated oral bioavailability (Fmax) based on stability data in rat Hepatocytes” value in data set [6] is on record as 82%.

Consider `CS(=O)(Cc1cc(Nc2ncc(F)c(-c3ccc(F)cc3F)n2)cc(S(F)(F)(F)(F)F)c1)=NC#N` (single isomer, unassigned) [Example 30, {[3-{[4-(2,4-Difluorophenyl)-5-fluoropyrimidin-2-yl]amino}-5-(pentafluoro-λ^6-sulfanyl)benzyl](methyl)oxido-λ^6-sulfanylidene}cyanamide], for which the IC50 stood at 359 nM in data set [1]; 167 nM in data set [2]; 1500 nM on CDK2/CycE; 4 nM against CDK9/CycT1 [3]; 141 nM in data set [4]; 9 nM against CDK9/CycT1 [5]. Besides, the “Selectivity CDK9/CDK2” value at CDK9/CycT1 [3] stood at 360.
